Reference: publication PMC4257840 (Journal of Medicinal Chemistry, 2014)

Key:
[1] = system: rat alveolar macrophage line NR8383; test: Stability in the presence of airway macrophages; assay type: in vitro ADME
Method: Stability in the presence of epithelial cells and ma crophages.
NR8383 Airway macroph a ges
were grown in suspension culture in F12K, collected b y centrifugation, washed in serum-free
exposed to test compounds in serum-free F12K at a standard concentration of 100 nM in a 5%
CO2 environment at 37 °C. Samples were removed at selected time points for quantitative
Assa ys w ere p er formed in replicate and t he data ex pressed as mean ± SE.

Der p 1 [2] = molecular target: T1, Der p 1 (Dermatophagoides pteronyssinus, UniProt P08176); test: biochemical; assay type: biochemical; settings: mean ± SE
T1 sequence (P08176 99-320): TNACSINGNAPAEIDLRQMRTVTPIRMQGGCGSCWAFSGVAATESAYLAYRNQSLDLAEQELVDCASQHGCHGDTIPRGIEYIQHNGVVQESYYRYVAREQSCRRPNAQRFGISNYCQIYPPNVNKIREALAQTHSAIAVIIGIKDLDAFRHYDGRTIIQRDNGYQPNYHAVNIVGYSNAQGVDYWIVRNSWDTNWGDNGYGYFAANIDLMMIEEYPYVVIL
Method: Automated screening of inhibitory activity toward group 1 HDM peptidase allergens was performed as described elsewhere[25],[43] with the minor modification that Der p 1 or Der f 1 were incubated with inhibitors for 20 min prior to initiation of reactions by addition of substrate. In initial screening, the activity of each compound was measured using a series of 10 doubling dilutions from a starting concentration of 50 μM. […] Assays were performed in triplicate for calculation of mean ± SE IC50 values.

human liver Cat B = human liver Cat B (Homo sapiens, UniProt P07858); test: Cathepsin B inhibition assay; settings: read-out: Cat B IC50; mean ± SE
Method: Inhibition of Cat B was measured as described with modifications.[25] […] Progress curves were followed at 30 °C by detection of fluorescence at 320/420 nm (excitation/emission).
(§3) In all cases, for reactions involving inhibitors, the amount of reaction buffer was adjusted to 60 μL, the inhibitor added as a 10 μL aliquot, and incubated for 20 min with the enzyme prior to reaction start.

Der p 1 [3] = molecular target: T1, Der p 1; parameters: method as in PMID 9871695; settings: irreversible acyloxymethyl ketone inhibitors, Figure 1; cited from earlier work
[4] = Measurement of LogD7.4 (n-octanol/PBS shake); assay type: physicochemical; settings: for logD at 1.5 h: single determination, n-octanol/PBS pH 7.4, read-out: Log D7.4
Method: Appendix 4. Measurement of LogD7.4
Test compounds (~1 mg) were weighed into 2 mL HPLC vials. n- Octanol (0.7 mL), pre-saturated with 10 mM phosphate buffered saline pH7.4 (PBS), was added to each vial followed b y PBS (0. 7 mL), which had been pre-saturat ed with n-octanol. The mixtures were shaken for 90 min and then centrifuged for 10 min at 4,000 rpm. The upper organic l ayer (0.2 m L) and the aqueous la yer (0.5 mL) were removed from each vial and anal yz e d b y LC -MS. Mass spect ral anal ysis was used to confirm peak identity whilst the concentration of compound was assessed by a diode arra y det ecto r. The logD for each compound was calculated b y takin g th e lo g of its concentration ratio between the oct anol and aqueous la ye r s.Given the robustness of the assa y and the fact that the info rmation was us ed onl y for gen eral guid ance, thes e measu rements were based on singlicate det erminations.

[5] = Pharmacokinetics after oral and iv dosing to rats; assay type: in vivo, Sprague-Dawley rat; settings: for Cmax / bioavailability: male, Sprague-Dawley, plasma; for Cmax / bioavailability / free conc Cmax: rat; for Cmax / free conc Cmax: 5 mg/kg po; for bioavailability: po, 5 mg/kg, read-out: F % (bioavailability)
Method: (§1) Appendix 2. Pharmaco kinetics an d P l a s ma Protein Binding […]
Pharma cokinetics. In vivo PK characteristics were determined using non- fasted Sprague-Dawle y rats (mal e, 200-300 g, 10- 16 weeks of age) with groups of three animals per route per compound. Soluble formulations were developed and verified b y HP LC/UV s o that compounds were dosed discretel y b y the iv (1 mg/kg, 1 mL/kg) and po (5 mg/kg, 5 mL/kg) routes. Blood samples were obtained at various times after dosing and plasma prepared for LC -MS-MS quantification of the test substance after inclusion of an intern al standard . PK p aramet ers were calculated usin g a non -compartmental model in WinNonlin v5.2.
(§2) Plasma Protein Binding Assay. PPB was determined with a Rapid Equilibrium Dialysis device using 8 kDa molecular weight cut-off inserts (Fisher Scientific UK Ltd, Leicest ershire, UK) as described b y the manufacturer. R at (Sprague Dawl e y strain) plasma EDTA K2 (mixed gender, pooled, SeraLab, West Sussex, UK) was thawed and centrifuged at 13,000 x g for 10 min to remove precipitates before being spiked with compounds (5 µM). The concentrations of compounds in the plasma and buffer chambers were determined b y LC -MS-MS (AB Sciex 3200 QTrap) anal ysis after 4 h incubation at 37 °C. Binding was calculated from the concentration percentage in both chambers as shown below. Assays were p erfo rmed in replicate and the data

[6] = Plasma protein binding, Rapid Equilibrium Dialysis; assay type: in vitro ADME; settings: both sexes, Sprague Dawley, plasma (EDTA K2, pooled), rat plasma, 4 h at 37 °C, read-out: PPB (converted)
Method: as §1, §2

Der f 1 = Der f 1 (Dermatophagoides farinae, UniProt P16311); test: Group 1 HDM peptidase allergen inhibition assay (Der f 1); assay type: biochemical, D. farinae; settings: in vitro enzymatic assay, mean ± SE
Sequence of Der f 1 (P16311 99-321): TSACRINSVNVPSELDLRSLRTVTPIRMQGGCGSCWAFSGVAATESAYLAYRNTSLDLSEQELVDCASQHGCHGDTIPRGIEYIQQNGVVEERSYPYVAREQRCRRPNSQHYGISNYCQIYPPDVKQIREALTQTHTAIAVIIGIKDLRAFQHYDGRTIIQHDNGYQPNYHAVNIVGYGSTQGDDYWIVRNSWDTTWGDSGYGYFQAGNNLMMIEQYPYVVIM
Method: Automated screening of inhibitory activity toward group 1 HDM peptidase allergens was performed as described elsewhere[25],[43] with the minor modification that Der p 1 or Der f 1 were incubated with inhibitors for 20 min prior to initiation of reactions by addition of substrate. In initial screening, the activity of each compound was measured using a series of 10 doubling dilutions from a starting concentration of 50 μM. Compounds showing optimizable activity were cherry-picked for multiple (up to six) rounds of rescreening to confirm activity and stability and to determine IC50 values over a range of concentrations that were compound-directed by initial screening. Assays were performed in triplicate for calculation of mean ± SE IC50 values.

[7] = system: nonsensitized rats challenged with a natural mixture of HDM allergens; settings: for efficacy, inhibition of eosinophil recruitment: rat, in vivo; for duration of protection: trend of inhibition of eosinophil recruitment with increasing pre-treatment interval: i.t. aerosol typically 60-360 min prior to allergen challenge, unsensitised BN rats
[8] = system: sensitized BN rats challenged with mixed HDM allergens; test: HDM allergen challenge of sensitized BN rats, BAL cells; assay type: in vivo, Brown Norway rat; settings: single dose 12 μg/kg (18 nmol/kg) 2 h prior to challenge, BAL 48 h
Excerpt: For other studies, rats were actively sensitized to a natural mixture of HDM allergens prepared from laboratory cultures of Dermatophagoides pteronyssinus. Animals were sensitized by the ip route in the absence of additional adjuvant on day 0, 7, and 14. […] Negative control groups comprised naïve, unsensitized animals or those sham-sensitized with vehicle solution.
Test ADIs were delivered as intratracheal aerosols of 25–30 μm mass median diameter from a Penn-Century IA-1B microsprayer at various times prior to allergen challenge. Allergen or vehicle challenge was similarly delivered by Penn-Century microsprayer on day 21 of the protocol. These procedures were conducted under anesthesia with isoflurane in oxygen. Test ADIs were generally dosed in a constant 50:1 molar ratio to the Der p 1 content of the allergen challenge mixture.
Animals were killed by sodium pentobarbital overdose 48 h after allergen challenge because this is the optimal sampling point to assess the recruitment of eosinophils (our unpublished observations). The airways were lavaged with 3 × 4 mL aliquots of Hanks’ Balanced Salt Solution and the recovered cells pooled and counted automatically (ADVIA; Bayer Healthcare, Diagnostics Division, UK). […] Cells were counted by an independent observer using light microscopy under oil immersion (×1000). […]

recombinant human Cat S = recombinant human Cat S (Homo sapiens, UniProt P25774); test: Cathepsin S inhibition assay; assay type: biochemical; settings: in vitro enzymatic assay, mean ± SE; read-out: Cat S
Sequence of recombinant human Cat S (P25774 115-331): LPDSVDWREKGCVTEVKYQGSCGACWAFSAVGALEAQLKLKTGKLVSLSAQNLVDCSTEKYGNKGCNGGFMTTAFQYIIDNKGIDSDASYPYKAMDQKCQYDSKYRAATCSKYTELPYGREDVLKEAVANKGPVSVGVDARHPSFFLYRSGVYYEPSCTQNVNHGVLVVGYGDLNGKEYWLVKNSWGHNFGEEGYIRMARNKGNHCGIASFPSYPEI
Method: as §3

[9] = 5 mg/kg po compared with 1 mg/kg iv, nonfasted Sprague–Dawley rats, mean ± SE, n = 3

Structure (SMILES) | IC50 (Der p 1 [2]) | IC50 (human liver Cat B) | logD at 1.5 h [4] | Cmax ([5]; mean ± SE, n = 3) | bioavailability [5, 9] | free conc Cmax [5] | fraction unbound at 4 h, 5 µM [6] | other results
CC(C)C(NC(=O)[C@H](C)NC(=O)[C@H](Cc1ccccc1)NC(=O)c1ccccc1)C(=O)C(=O)NC1CCCCC1 (mixture of isomers) [Compound 19] | 18 ± 2 nM | 52 ± 5 nM | – | – | – | – | – | remaining unchanged (processing by airway macrophages) ([1]; after 2 h): ~70%
CCCC[C@H](NC(=O)[C@H](C)NC(=O)[C@@H](NC(=O)c1ccccc1)C(C)C)C(=O)COC(=O)c1ccccc1 [Compound 1] | – | – | – | – | – | – | – | Kobs/[I] (Der p 1 [3]): 210000 M⁻¹ s⁻¹
CCCC[C@H](NC(=O)[C@H](C)NC(=O)[C@@H](NC(=O)c1ccccc1)C(C)C)C(=O)COC(=O)c1c(C(F)(F)F)cccc1C(F)(F)F [Compound 2] | – | – | – | – | – | – | – | Kobs/[I] (Der p 1 [3]): 1.6e+06 M⁻¹ s⁻¹
CCCC[C@H](NC(=O)[C@H](C)NC(=O)[C@H](Cc1ccccc1)NC(=O)c1ccccc1)C(=O)C(=O)NC1CCCCC1 [Compound 5, N-{(S)-1-[(S)-1-((S)-1-Cyclohexylaminooxalyl-pentylcarbamoyl)-ethylcarbamoyl]-2-phenyl-ethyl}-benzamide] | – | – | – | – | – | – | – | degraded by airway macrophages ([1]; over a 2 h period): > 50%
CC(C)[C@H](NC(=O)[C@H](C)NC(=O)[C@@H](NC(=O)c1ccccc1)C(C)(C)C)C(=O)C(=O)NC1CCCCC1 [Compound 22, N-{(S)-1-[(S)-1-((S)-1-Cyclohexylaminooxalyl-2-methyl-propylcarbamoyl)-ethylcarbamoyl]-2,2-dimethyl-propyl}-benzamide] | 14 ± 3 nM | 378 ± 27 nM | 3.9 | – | – | – | – | degradation by airway macrophages ([1]; over 2 h): no significant degradation
CC(C)[C@H](NC(=O)[C@H](C)NC(=O)[C@@H](N1Cc2ccccc2C1=O)C(C)(C)C)C(=O)C(=O)NCc1ccccc1 [Compound 28, (S)-3-{(S)-2-[(S)-3,3-Dimethyl-2-(1-oxo-1,3-dihydro-isoindol-2-yl)-butyrylamino]-propionylamino}-4-methyl-2-oxo-pentanoic Acid Benzylamide] | 7 ± 1 nM | 429 ± 65 nM | 3.6 | 663 ± 26 nM | 20 ± 1% | 11 ± 0 nM | 0.02 | –
CC(C)[C@H](NC(=O)[C@H](C)NC(=O)[C@@H](NC(=O)C1CC[N+](C)(C)CC1)C(C)(C)C)C(=O)C(=O)NCc1ccccc1.O=C[O-] [Compound 32, 4-{(S)-1-[(S)-1-((S)-1-Benzylaminooxalyl-2-methyl-propylcarbamoyl)-ethylcarbamoyl]-2,2-dimethyl-propylcarbamoyl}-1,1-dimethyl-piperidinium Formate] | – | 274 ± 44 nM | -0.9 | 20 ± 13 nM | 1% | 8 ± 0 nM | 0.388 | IC50 (Der f 1): 4 nM; efficacy, inhibition of eosinophil recruitment [7]: Good efficacy; F % (bioavailability) [5, 9]: 0.6 ± 0.2%; eosinophil recruitment [8]: marked inhibition; increase in total nucleated cells recoverable by BAL [8]: significantly blunted
CC(C)[C@H](NC(=O)[C@H](C)NC(=O)[C@@H](NC(=O)c1ccccc1)C(C)(C)C)C(=O)C(=O)NC1CC1 [Compound 35] | 17 ± 1 nM | 417 ± 25 nM | 2.4 | 1140 ± 268 nM | 90 ± 11% | 176 ± 0 nM | 0.155 | duration of protection: trend of inhibition of eosinophil recruitment with increasing pre-treatment interval [7]: rise to well-maintained; logD ([4]; pH 7.4, versus compound 22, read-out: reduction of measured log D on replacing cyclohexyl (22) by cyclopropyl): ~1.5
CC(C)[C@H](NC(=O)[C@H](C)NC(=O)[C@H](Cc1ccccc1)NC(=O)c1ccccc1)C(=O)C(=O)NCC(=O)N1CC[N+](C)(C)CC1.O=C[O-] [Compound 52, 4-(2-{(S)-3-[(S)-2-((S)-2-Benzoylamino-3-phenyl-propionylamino)-propionylamino]-4-methyl-2-oxo-pentanoylamino}-acetyl)-1,1-dimethyl-piperazin-1-ium Formate] | – | > 2500 nM | -0.6 | 7 ± 2 nM | 0% | 3 ± 0 nM | 0.365 | IC50 (Der f 1): 11 ± 1 nM; efficacy, inhibition of eosinophil recruitment [7]: Good efficacy; IC50 (recombinant human Cat S): 114 ± 7 nM
CC(C)[C@H](NC(=O)[C@H](C)NC(=O)[C@H](Cc1ccccc1)NC(=O)c1cccc2ccccc12)C(=O)C(=O)NCC(=O)N1CCN(C)CC1 [Compound 53, Naphthalene-1-carboxylic Acid [(S)-1-((S)-1-{(S)-2-Methyl-1-[2-(4-methyl-piperazin-1-yl)-2-oxo-ethylaminooxalyl]-propylcarbamoyl}-ethylcarbamoyl)-2-phenyl-ethyl]-amide] | 20 ± 3 nM | 540 ± 28 nM | 2 | – | – | – | – | duration of protection: trend of inhibition of eosinophil recruitment with increasing pre-treatment interval [7]: waned
